Data: US5053402A, “Certain glyceryl phosphate-cyclic ammonium compounds useful for treating hypertension” (Nippon Chemiphar Co., Ltd., priority 1986, dated 1991)

Tests used:
platelet = assay: Blood Platelet Agglutination Action; assay type: cell-based, male Japanese white rabbit; conditions: Oryctolagus cuniculus; for EC50: from agglutination curve
Protocol: A male Japanese white rabbit was anesthetized by pentobarbital, and a blood was collected in aqueous 3.13% sodium citrate solution at its carotid. The blood containing 1/10 volume ratio of the sodium citrate solution was treated in a conventional manner to give a platelet rich plasma (PRP) and a platelet poor plasma (PPP) for performing the following experiment.
PRP was diluted with PPP to give a sample containing platelets at 300,000/mm^3.
Agglutination of platelet was determined by means of Platelet Aggregation Tracer PAT-4A(available from Niko Bioscience Co., Ltd., Japan). 10 μl of a test solution was added to 190 μl of PRP to give a final solution of 2×10^-10 to 2×10^-4 M, and an agglutination curve is recorded. For the preparation of the test solution, a saline solution containing 0.25% bovine serum albumin.
Agglutination of Platelet

blood pressure [1] = assay: Blood Pressure Reducing Action: Intravenous Injection; assay type: in vivo, Male Wister rats; conditions: anesthetized rat; for ED (50 mmHg reduction): iv, from dose-response curve, read-out: MABP50 (dose required for reducing average blood pressure by 50 mmHg); for Reduction of Blood Pressure: i.v.
Protocol: Male Wister rats (mean body weight: 420 g) were anesthetized by intra-peritoneal injection of 50 mg/kg of pentobarbital sodium and were fixed on their backs, and their blood pressures were measured at left femoral artery. Subsequently, a compound to be tested was dissolved in a saline solution containing 0.25% bovine serum albumin and injected into the rat through the right femoral vein.
A dose-response curve was prepared from the above values to determine a dose required for reducing average blood pressure by 50 mmHg (MABP50). MABP50 for the above compound was 21 ng/kg.

blood pressure [2] = assay: Blood Pressure Decreasing Action: Oral Administration; assay type: in vivo, Spontaneously hypertensive male rats; conditions: 10 mg/kg
Protocol: Spontaneously hypertensive male rates (average body weight: 359 g) were etherized and fixed on their backs. Blood pressure was measured for each rat through cannulation at its left femoral artery. A compound to be tested was dissolved in a distilled water and the resulting aqueous solution was administered orally.

Row | EC50 (platelet; table) [nM] | SMILES | ED (50 mmHg reduction) (blood pressure [1]) [µg/kg] | Reduction of Blood Pressure (blood pressure [2]; after 30 min) | Reduction of Blood Pressure (blood pressure [2]; after 1 hr) [mmHg] | Reduction of Blood Pressure (blood pressure [2]; after 2 hrs) [mmHg] | Reduction of Blood Pressure (blood pressure [2]; after 3 hrs) [mmHg] | Reduction of Blood Pressure (blood pressure [2]; after 4 hrs) [mmHg] | Reduction of Blood Pressure (blood pressure [2]; after 5 hrs) [mmHg] | Reduction of Blood Pressure (blood pressure [2]; after 6 hrs) [mmHg] | other results
1 | 0.6 | CCCCCCCCCCCCCCCCOCC(COP(=O)([O-])OC1CCC[N+](C)(C)C1)OC(C)=O (stereo not drawn) [Example 1, 2-Acetyloxy-3-hexadecyloxypropyl 1,1-dimethylpiperidinio-3-yl phosphate] | 0.013 | – | – | – | – | – | – | – | –
2 | 8 | CCCCCCCCCCCCCCCCOCC(COP(=O)([O-])OC1CC[N+](C)(C)CC1)OC(C)=O (stereo not drawn) [Example 2, 2-Acetyloxy-3-hexadecyloxypropyl 1,1-dimethylpiperidinio-4-yl phosphate] | 0.058 | – | – | – | – | – | – | – | –
3 | 400 | CCCCCCCCCCCCCCCCOC(C)C(COP(=O)([O-])OC1CC[N+](C)(C)C1)OC(C)=O (stereo not drawn) [Example 3, 2-Acetyloxy-3-hexadecyloxybutyl 1,1-dimethylpyrrolidinio-3-yl phosphate] | 8.5 | -49.7 mmHg | -60.7 | -74.3 | -82.0 | -84.7 | -83.7 | -82.3 | –
4 | 22 | CCCCCCCCCCCCCCCCOC(C)C(COP(=O)([O-])OC1CCC[N+](C)(C)C1)OC(C)=O (stereo not drawn) [Example 4, 2-Acetyloxy-3-hexadecyloxybutyl 1,1-dimethylpiperidinio-3-yl phosphate] | 0.34 | -66.0 mmHg | -68.0 | -73.0 | -72.3 | -66.7 | -63.0 | -66.7 | –
5 | 630 | CCCCCCCCCCCCCCCCOC(C)C(COP(=O)([O-])OC1CC[N+](C)(C)CC1)OC(C)=O (stereo not drawn) [Example 5, 2-Acetyloxy-3-hexadecyloxybutyl 1,1-dimethylpiperidinio-4-yl phosphate] | 8.6 | +5.0 mmHg | 0 | -14.5 | -19.0 | -22.5 | -26.0 | -28.0 | –
6 | 5000 | CCCCCCCCCCCCCCCCOCC(OC(C)=O)C(OP(=O)([O-])OC1CC[N+](C)(C)C1)C(C)C (stereo not drawn) [Example 6, 2-Acetyloxy-3-hexadecyloxy-1-(1-methylethyl)-propyl 1,1-dimethylpyrrolidinio-3-yl phosphate] | 48 | – | – | – | – | – | – | – | –
7 | – | CCCCCCCCCCCCCCCCOCC(COP(=O)([O-])OC1CC[N+](C)(C)C1)OC(C)=O (stereo not drawn) [Example 8, 2-Acetyloxy-3-hexadecyloxypropyl 1,1-dimethylpyrrolidinio-3-yl phosphate] | 0.021 | – | – | – | – | – | – | – | activation at 2 µM (platelet; 2 × 10^-6 M, PRP = 0%, PPP = 100%): 86%; activation at 0.2 µM (platelet; 2 × 10^-7 M, PRP = 0%, PPP = 100%): 81%; activation at 0.02 µM (platelet; 2 × 10^-8 M, PRP = 0%, PPP = 100%): 67%; activation at 0.002 µM (platelet; 2 × 10^-9 M, PRP = 0%, PPP = 100%): 18%; activation at 0.0002 µM (platelet; 2 × 10^-10 M, PRP = 0%, PPP = 100%): 0%; EC50 (platelet): 18 nM; Reduction of Blood Pressure (blood pressure [1]; 1 ng/kg): -4.5 ± 1.5 mmHg; Reduction of Blood Pressure (blood pressure [1]; 5 ng/kg): -21.5 ± 8.0 mmHg; Reduction of Blood Pressure (blood pressure [1]; 10 ng/kg): -47.5 ± 0.5 mmHg; Reduction of Blood Pressure (blood pressure [1]; 50 ng/kg): -52.6 ± 4.6 mmHg; Reduction of Blood Pressure (blood pressure [1]; 100 ng/kg): -67.0 ± 3.1 mmHg
